From patent US8071768B2, “Alkylquinoline and alkylquinazoline kinase modulators” (Janssen Pharmaceutica, N.V., priority 2005, dated 2011)

Molecular target: T1, TrkB (Homo sapiens, UniProt Q16620)
T1 construct: purchased Upstate 14-507M
Assay: Trk B Fluorescence Polarization Kinase Assay
Format: biochemical
Conditions: uncertainty ±10%
Method: Trk B Fluorescence Polarization Kinase Assay (TrkB IC50 Data)
The compounds of the present invention are also specific inhibitors of TrkB. Selection of preferred compounds of Formula I for use as TrkB inhibitors was performed in the following manner. The TrkB assay utilized the fluorescein-labeled phosphopeptide and the anti-phosphotyrosine antibody included in the Panvera Phospho-Tyrosine Kinase Kit (Green) supplied by Invitrogen. When TrkB phosphorylated poly Glu4Tyr, the fluorescein-labeled phosphopeptide was displaced from the anti-phosphotyrosine antibody by the phosphorylated poly Glu4Tyr, thus decreasing the FP value. The TrkB kinase reaction was incubated at room temperature for 30 minutes under the following conditions: 50 nM TrkB (Upstate, catalog # 14-507M), 20 ug/mL poly Glu4Tyr, 150 uM ATP, 5 mM MgCl2, 1% compound in DMSO. The kinase reaction was stopped with the addition of EDTA. The fluorescein-labeled phosphopeptide and the anti-phosphotyrosine antibody were added and incubated for 30 minutes at room temperature. Data points were an average of triplicate samples. Inhibition and IC50 data analysis were done with GraphPad Prism using a non-linear regression fit with a multiparamater, sigmoidal dose-response (variable slope) equation.

T1 sequence (Q16620 32-822): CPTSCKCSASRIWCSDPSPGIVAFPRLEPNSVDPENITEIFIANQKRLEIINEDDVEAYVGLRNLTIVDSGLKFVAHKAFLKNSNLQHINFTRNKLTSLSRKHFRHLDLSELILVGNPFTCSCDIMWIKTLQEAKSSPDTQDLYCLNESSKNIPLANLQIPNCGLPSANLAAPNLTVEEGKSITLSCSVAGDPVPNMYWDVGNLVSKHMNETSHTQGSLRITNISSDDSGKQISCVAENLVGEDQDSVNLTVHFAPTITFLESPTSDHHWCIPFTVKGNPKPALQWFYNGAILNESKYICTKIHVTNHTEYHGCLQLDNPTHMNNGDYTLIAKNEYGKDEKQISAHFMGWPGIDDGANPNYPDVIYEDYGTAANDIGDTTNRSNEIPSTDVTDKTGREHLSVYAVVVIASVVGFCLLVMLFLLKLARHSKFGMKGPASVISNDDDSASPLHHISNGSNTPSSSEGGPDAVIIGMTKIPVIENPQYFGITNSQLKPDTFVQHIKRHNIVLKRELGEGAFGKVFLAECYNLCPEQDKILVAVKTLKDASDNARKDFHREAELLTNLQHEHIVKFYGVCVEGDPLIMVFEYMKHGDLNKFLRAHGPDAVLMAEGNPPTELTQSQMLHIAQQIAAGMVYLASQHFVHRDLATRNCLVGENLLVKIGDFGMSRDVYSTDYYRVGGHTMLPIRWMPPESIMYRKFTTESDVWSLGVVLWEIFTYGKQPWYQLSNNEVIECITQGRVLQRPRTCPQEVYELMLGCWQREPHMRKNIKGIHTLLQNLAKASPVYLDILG

SMILES	IC50 [µM]
CN1CCC(COc2ccc3c(C4CCN(C(=O)Nc5ccc(OC6CCC6)nc5)CC4)ncnc3c2)CC1 [Compound 107, 4-[7-(1-Methyl-piperidin-4-ylmethoxy)-quinazolin-4-yl]-piperidine-1-carboxylic acid (6-cyclobutoxy-pyridin-3-yl)-amide]	0.2
COc1cc2ncnc(C3CCN(C(=O)Nc4ccc(N5CCCCC5)c(Cl)c4)CC3)c2cc1OC [Compound 71, 4-(6,7-Dimethoxy-quinazolin-4-yl)-piperidine-1-carboxylic acid (3-chloro-4-piperidin-1-yl-phenyl)-amide]	6.1
O=C(Nc1ccc(N2CCOCC2)nc1)N1CCC(c2ncnc3cc(OCCN4CCOC4=O)ccc23)CC1 [Compound 91, 4-{7-[2-(2-Oxo-oxazolidin-3-yl)-ethoxy]-quinazolin-4-yl}-piperidine-1-carboxylic acid (6-morpholin-4-yl-pyridin-3-yl)-amide]	1.9
COc1cc2ncnc(C3CCN(C(=O)Nc4ccc(OC(C)C)nc4)CC3)c2cc1OC [Compound 56, 4-(6,7-Dimethoxy-quinazolin-4-yl)-piperidine-1-carboxylic acid (6-isopropoxy-pyridin-3-yl)-amide]	0.4
CN1CCN(CCCOc2ccc3c(C4CCN(C(=O)Nc5ccc(OC6CCCC6)nc5)CC4)ncnc3c2)CC1 [Compound 82, 4-{7-[3-(4-Methyl-piperazin-1-yl)-propoxy]-quinazolin-4-yl}-piperidine-1-carboxylic acid (6-cyclopentyloxy-pyridin-3-yl)-amide]	0.4
CC(C)Oc1ccc(NC(=O)N2CCC(c3ncnc4cc(OCCN5CCOC5=O)ccc34)CC2)cc1 [Compound 79, 4-{7-[2-(2-Oxo-oxazolidin-3-yl)-ethoxy]-quinazolin-4-yl}-piperidine-1-carboxylic acid (4-isopropoxy-phenyl)-amide]	0.3
CCN(CC)CC#Cc1ccc2ncnc(C3CCN(C(=O)Nc4ccc(OC(C)C)cc4)CC3)c2c1 [Compound 13, 4-[6-(3-Diethylamino-prop-1-ynyl)-quinazolin-4-yl]-piperidine-1-carboxylic acid (4-isopropoxy-phenyl)-amide]	1.3
CN1CCN(CCCOc2ccc3c(C4CCN(C(=O)Nc5cnc(N6CCCC6)nc5)CC4)ncnc3c2)CC1 [Compound 105, 4-{7-[3-(4-Methyl-piperazin-1-yl)-propoxy]-quinazolin-4-yl}-piperidine-1-carboxylic acid (2-pyrrolidin-1-yl-pyrimidin-5-yl)-amide]	0.2
CC(=O)N1CCC[C@H]1COc1ccc2c(C3CCN(C(=O)Nc4ccc(N5CCCC5)cc4)CC3)ncnc2c1 [Compound 162, (S)-4-[7-(1-Acetyl-pyrrolidin-2-ylmethoxy)-quinazolin-4-yl]-piperidine-1-carboxylic acid (4-pyrrolidin-1-yl-phenyl)-amide]	> 21
CS(=O)(=O)CCNc1ccc2c(C3CCN(C(=O)Nc4ccc(N5CCOCC5)cc4)CC3)ncnc2c1 [Compound 146, 4-[7-(2-Methanesulfonyl-ethylamino)-quinazolin-4-yl]-piperidine-1-carboxylic acid (4-morpholin-4-yl-phenyl)-amide]	> 42
COc1cc2ncnc(C3CCN(C(=O)Nc4ccc(-n5ccnc5)cc4)CC3)c2cc1OC [Compound 3, 4-(6,7-Dimethoxy-quinazolin-4-yl)-piperidine-1-carboxylic acid (4-imidazol-1-yl-phenyl)-amide]	> 42
CC(C)c1ccc(NC(=O)N2CCC(c3ncnc4ccccc34)CC2)cc1 [Compound 7, 4-Quinazolin-4-yl-piperidine-1-carboxylic acid (4-isopropyl-phenyl)-amide]	3.3
O=C1CCCN1CCOc1ccc2c(C3CCN(C(=O)Nc4ccc(N5CCOCC5)cc4)CC3)ncnc2c1 [Compound 85, 4-{7-[2-(2-Oxo-pyrrolidin-1-yl)-ethoxy]-quinazolin-4-yl}-piperidine-1-carboxylic acid (4-morpholin-4-yl-phenyl)-amide]	> 20
CCCCc1ccc(NC(=O)N2CCC(c3ncnc4cc(OC)c(OC)cc34)CC2)cc1 [Compound 43, 4-(6,7-Dimethoxy-quinazolin-4-yl)-piperidine-1-carboxylic acid (4-butyl-phenyl)-amide]	0.8
CC(=O)N1CCN(CCCOc2ccc3c(C4CCN(C(=O)Nc5ccc(N6CCOCC6)cc5)CC4)ncnc3c2)CC1 [Compound 117, 4-{7-[3-(4-Acetyl-piperazin-1-yl)-propoxy]-quinazolin-4-yl}-piperidine-1-carboxylic acid (4-morpholin-4-yl-phenyl)-amide]	> 20
O=C(Nc1ccc(N2CCCC2)cc1)N1CCC(c2ncnc3cc(OCCN4CCOC4=O)ccc23)CC1 [Compound 147, 4-{7-[2-(2-Oxo-oxazolidin-3-yl)-ethoxy]-quinazolin-4-yl}-piperidine-1-carboxylic acid (4-pyrrolidin-1-yl-phenyl)-amide]	2.73

SMILES	IC50 [µM]
CS(=O)(=O)NCCCOc1ccc2c(C3CCN(C(=O)Nc4ccc(N5CCOCC5)cc4)CC3)ncnc2c1 [Compound 66, 4-[7-(3-Methanesulfonylamino-propoxy)-quinazolin-4-yl]-piperidine-1-carboxylic acid (4-morpholin-4-yl-phenyl)-amide]	> 42
CN1CCC(COc2ccc3c(C4CCN(C(=O)Nc5ccc(N6CCCC6)cc5)CC4)ncnc3c2)CC1 [Compound 109, 4-[7-(1-Methyl-piperidin-4-ylmethoxy)-quinazolin-4-yl]-piperidine-1-carboxylic acid (4-pyrrolidin-1-yl-phenyl)-amide]	8.9
CC(C)Oc1ccc(NC(=O)N2CCC(c3ncnc4cc(Cl)ccc34)CC2)cc1 [Compound 29, 4-(7-Chloro-quinazolin-4-yl)-piperidine-1-carboxylic acid (4-isopropoxy-phenyl)-amide]	0.5
CC(C)Oc1ccc(NC(=O)N2CCC(c3ncnc4cc(OCCCOS(C)(=O)=O)ccc34)CC2)cc1 [Compound 121, Methanesulfonic acid 3-{4-[1-(4-isopropoxy-phenylcarbamoyl)-piperidin-4-yl]-quinazolin-7-yloxy}-propyl ester]	0.13
COc1cc2ncnc(C3CCN(C(=O)Nc4ccc(NC(C)=O)cc4)CC3)c2cc1OC [Compound 25, 4-(6,7-Dimethoxy-quinazolin-4-yl)-piperidine-1-carboxylic acid (4-acetylamino-phenyl)-amide]	> 42
CN1CCN(CCOc2ccc3c(C4CCN(C(=O)Nc5ccc(N6CCCC6)cc5)CC4)ncnc3c2)CC1 [Compound 157, 4-{7-[2-(4-Methyl-piperazin-1-yl)-ethoxy]-quinazolin-4-yl}-piperidine-1-carboxylic acid (4-pyrrolidin-1-yl-phenyl)-amide]	7.05
COC[C@H]1CCCN1c1ccc2c(C3CCN(C(=O)Nc4ccc(N5CCOCC5)cc4)CC3)ncnc2c1 [Compound 130, (R)-4-[7-(2-Methoxymethyl-pyrrolidin-1-yl)-quinazolin-4-yl]-piperidine-1-carboxylic acid (4-morpholin-4-yl-phenyl)-amide]	> 42
CC(C)Oc1ccc(NC(=O)N2CCC(c3ncnc4cc(OCCN5CCOCC5)ccc34)CC2)cc1 [Compound 37]	0.7
CCN(CC)CCCOc1ccc2c(C3CCN(C(=O)Nc4ccc(OC(C)C)cc4)CC3)ncnc2c1 [Compound 36, 4-[7-(3-Diethylamino-propoxy)-quinazolin-4-yl)-piperidine-1-carboxylic acid (4-isopropoxy-phenyl)-amide]	0.6
CN1CCC[C@H]1COc1ccc2c(C3CCN(C(=O)Nc4ccc(N5CCCC5)cc4)CC3)ncnc2c1 [Compound 151, (S)-4-[7-(1-Methyl-pyrrolidin-2-ylmethoxy)-quinazolin-4-yl]-piperidine-1-carboxylic acid (4-pyrrolidin-1-yl-phenyl)-amide]	> 42
O=C(Nc1ccc(N2CCOCC2)cc1)N1CCC(c2ncnc3cc(OCCCN4CCCC4)ccc23)CC1 [Compound 124, 4-[7-(3-Pyrrolidin-1-yl-propoxy)-quinazolin-4-yl]-piperidine-1-carboxylic acid (4-morpholin-4-yl-phenyl)-amide]	> 20
CN1CCN(CCCOc2ccc3c(C4CCN(C(=O)Nc5ccc(N6CCCC6)nc5)CC4)ncnc3c2)CC1 [Compound 104, 4-{7-[3-(4-Methyl-piperazin-1-yl)-propoxy]-quinazolin-4-yl}-piperidine-1-carboxylic acid (6-pyrrolidin-1-yl-pyridin-3-yl)-amide]	0.8
CNC(=O)C1CCN(c2ccc3c(C4CCN(C(=O)Nc5ccc(N6CCCC6)cc5)CC4)ncnc3c2)CC1 [Compound 155, 4-[7-(4-Carboxylic acid methylamide-piperidin-1-yl)-quinazolin-4-yl]-piperidine-1-carboxylic acid (4-pyrrolidin-1-yl-phenyl)-amide]	11
O=C(Nc1ccc(N2CCOCC2)cc1)N1CCC(c2ncnc3cc(OCCCN4CCC[C@H]4CO)ccc23)CC1 [Compound 119, (S)-4-{7-[3-(2-Hydroxymethyl-pyrrolidin-1-yl)-propoxy]-quinazolin-4-yl}-piperidine-1-carboxylic acid (4-morpholin-4-yl-phenyl)-amide]	> 20
O=C(Nc1ccc(N2CCOCC2)nc1)N1CCC(c2ncnc3cc(OCCCn4cnnc4)ccc23)CC1 [Compound 110, 4-[7-(3-[1,2,4]Triazol-4-yl-propoxy)-quinazolin-4-yl]-piperidine-1-carboxylic acid (6-morpholin-4-yl-pyridin-3-yl)-amide]	15
